Assay [1] has as its system mice. Kind of assay: Light-dark box test of anxiety. The assay is classed as in vivo. The note with it: 16 and 32 mg/kg, alone. The text has this:
The light/dark test is based on the innate aversion of rodents to brightly/illuminated areas and on the spontaneous exploratory behaviour of rodents in response to mild stress, that is, novel environment and light. The test apparatus consists of a compartment box divided between a dark safe compartment and an illuminated aversive compartment.

The test system of assay [2] is mouse. In words: Behavioural despair test in the mouse (forced swim; duration of immobility and latency to immobility). The conditions noted are these: for DURATION OF IMMOBILITY % change / LATENCY % change: (a) compared with vehicle control. The assay is classed as in vivo, Male Rj: NMRI mice. Here is the method: Male Rj: NMRI mice (Elevage Janvier, 53940 Le Genest-Saint-Isle, France) having a body weight of between 22 and 29 g were used in the study. The mice were stabilised for 5 days prior to assessment with free access to food and water. […] […] The control vehicle was distilled water. The substances were evaluated in comparison with the control vehicle and were administered dissolved in distilled water.
The method, which detects antidepressant activity, follows that described by Porsolt et al (Arch. Int. Pharmacodyn., 1977, 229, 327-336). Mice forced to swim in a situation from which they cannot escape rapidly become immobile. Antidepressants decrease the duration of immobility.
Mice were individually placed in a cylinder (height=24 cm; diameter=13 cm) containing 10 cm water (22° C.) from which they cannot escape. The mice were placed in the water for 6 minutes and the duration of immobility during the last 4 minutes was measured. The latency to the first bout of immobility was also recorded.
10 mice were studied per group. The test was performed blind.
L-lysine-d-amphetamine (Vyvanse) (8, 16 and 32 mg/kg) was administered 90 minutes before the test, alone or in combination and compared with a vehicle control group.
Imipramine (128 mg/kg p.o.), administered under the same experimental conditions, was used as a reference substance.
Data were analysed by comparing treated groups with vehicle control using unpaired Student's t tests. In addition, groups treated with combinations of substances were compared with groups administered appropriate substances alone using unpaired Student's t tests.
The mouse behavioural despair test is based on the observation that mice, when forced to swim in a situation from which there is no escape, after an initial period of vigorous activity will eventually cease to move altogether making only those movements necessary to keep the head above the water. This behavioural immobility is thought to indicate a state of despair in which the mice have learned that escape is impossible and have resigned themselves to the experimental conditions. This immobility is reduced by anti-depression treatments.

Setting [3] is: Table 2, 128 mg/kg p.o. -60 min.
Setting [4] is: Table 3, 128 mg/kg p.o. -90 min.

For `C[C@@H](Cc1ccccc1)NC(=O)[C@@H](N)CCCCN` [Vyvanse, N-[(1S)-1-methyl-2-phenylethyl]-L-lysinamide], the anxiogenic activity result in assay [1] is “absence of any anxiogenic activity”. The antidepressant-like activity result in assay [2] (16 and 32 mg/kg, alone) was “presence of antidepressant-like activity”. The “DURATION OF IMMOBILITY mean ± s.e.m.” value in assay [2] (Table 2, 16 mg/kg p.o. -60 min) is on record as 173.6 ± 18.8 s; in assay [2] (Table 2, 32 mg/kg p.o. -60 min) it was 160.3 ± 22.6 s; in assay [2] (Table 3, 8 mg/kg p.o. -90 min), 208.0 ± 7.3 s; in assay [2] (Table 3, 16 mg/kg p.o. -90 min), 176.8 ± 14.8 s; in assay [2] (Table 3, 32 mg/kg p.o. -90 min), 123.1 ± 20.8 s. Further, the “LATENCY mean ± s.e.m.” value in assay [2] (Table 2, 16 mg/kg p.o. -60 min) amounted to 100.0 ± 21.3 s; in assay [2] (Table 2, 32 mg/kg p.o. -60 min), 104.3 ± 18.2 s. Moreover, the “DURATION OF IMMOBILITY % change” value in assay [2] (Table 2, 16 mg/kg p.o. -60 min) was −19%; in assay [2] (Table 2, 32 mg/kg p.o. -60 min) it was −25%; in assay [2] (Table 3, 8 mg/kg p.o. -90 min), “+7%”; in assay [2] (Table 3, 16 mg/kg p.o. -90 min), −9%; in assay [2] (Table 3, 32 mg/kg p.o. -90 min), −37%. The LATENCY % change result in assay [2] (Table 2, 16 mg/kg p.o. -60 min) was “+55%”; in assay [2] (Table 2, 32 mg/kg p.o. -60 min), “+61%”.
`CN(C)CCCN1c2ccccc2CCc2ccccc21` [Imipramine]: in assay [2] (setting [3]), the “DURATION OF IMMOBILITY mean ± s.e.m.” value was 70.4 ± 21.4 s, the “LATENCY mean ± s.e.m.” value stood at 243.6 ± 32.7 s, the “DURATION OF IMMOBILITY % change” value was −67% and the LATENCY % change result was “+277%”. Besides, in assay [2] (setting [4]), the “DURATION OF IMMOBILITY mean ± s.e.m.” value amounted to 100.6 ± 23.5 s and the “DURATION OF IMMOBILITY % change” value is on record as −48%.
Consider `CN[C@H]1CC[C@@H](c2ccc(Cl)c(Cl)c2)c2ccccc21` [Sertraline, sertraline], for which, in assay [2] (Table 3, 16 mg/kg p.o. -90 min), the “DURATION OF IMMOBILITY mean ± s.e.m.” value is 162.7 ± 27.5 s and the “DURATION OF IMMOBILITY % change” value is listed as −16%.

These data come from US20100303903A1, “METHODS OF ENHANCING SELECTIVE SEROTONIN REUPTAKE INHIBITOR EFFECTS IN MAMMALS” (SHIRE LLC, priority 2009, published 2010).
